We go through 30 molecules from patent US10947213B1 (Merck Patent GmbH, priority 2015, dated 2021).

Where a name gives a salt, the structure may show the parent alone.

In the assay the target is T1, TLR7/NFKb HEK cells (Homo sapiens, UniProt Q9NYK1).
T1 construct: expressed in transfected cells; host or cells: HEK cells (TLR7/NFKb reporter line)
T1 sequence (Q9NYK1 27-1049): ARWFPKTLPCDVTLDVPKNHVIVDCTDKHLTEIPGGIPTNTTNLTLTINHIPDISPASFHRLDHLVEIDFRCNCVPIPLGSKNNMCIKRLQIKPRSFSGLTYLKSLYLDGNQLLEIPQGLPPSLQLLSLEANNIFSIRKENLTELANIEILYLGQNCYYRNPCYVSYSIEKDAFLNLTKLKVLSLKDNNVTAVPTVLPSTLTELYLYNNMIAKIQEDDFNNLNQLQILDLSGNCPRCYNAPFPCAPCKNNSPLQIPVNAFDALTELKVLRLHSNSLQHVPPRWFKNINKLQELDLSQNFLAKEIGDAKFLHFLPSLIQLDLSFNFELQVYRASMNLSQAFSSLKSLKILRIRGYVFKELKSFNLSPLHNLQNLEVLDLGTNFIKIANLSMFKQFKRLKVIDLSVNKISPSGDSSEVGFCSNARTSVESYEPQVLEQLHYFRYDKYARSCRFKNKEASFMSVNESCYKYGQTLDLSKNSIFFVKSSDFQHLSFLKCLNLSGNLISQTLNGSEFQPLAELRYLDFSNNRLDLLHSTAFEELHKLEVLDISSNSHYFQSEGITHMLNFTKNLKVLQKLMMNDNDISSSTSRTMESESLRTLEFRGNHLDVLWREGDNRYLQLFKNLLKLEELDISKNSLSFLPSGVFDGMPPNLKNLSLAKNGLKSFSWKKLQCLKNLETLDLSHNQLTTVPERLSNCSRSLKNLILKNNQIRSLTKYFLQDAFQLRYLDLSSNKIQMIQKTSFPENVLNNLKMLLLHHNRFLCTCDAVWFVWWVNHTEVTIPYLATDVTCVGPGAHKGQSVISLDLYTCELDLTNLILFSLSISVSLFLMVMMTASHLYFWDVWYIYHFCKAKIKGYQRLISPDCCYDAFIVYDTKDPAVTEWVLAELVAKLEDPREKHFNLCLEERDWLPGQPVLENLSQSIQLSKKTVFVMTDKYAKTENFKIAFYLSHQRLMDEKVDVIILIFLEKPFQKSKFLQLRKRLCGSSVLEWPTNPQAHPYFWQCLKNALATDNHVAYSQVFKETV
Put plainly: HEK Cell Assay (TLR7/NFKb reporter, Steady-Glo luciferase readout). In kind it is cell-based. The note with it: 30 min compound preincubation, then R*48 agonist for 5 hours, read-out: Potency. The procedure, abridged: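 Steady-Glo luminescence after 5 h stimulation with R*48 agonist, following 30 min compound preincubation. Assay run in HEK cells carrying a TLR7/NFKb luciferase reporter, plated at 5000 cells/well and grown 24 h at 37° C (10% CO2) before treatment.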
For `CN1CCC(NC2CC(C(F)(F)F)CN(c3ccc(C#N)c4nccnc34)C2)C1=O` (single isomer, unassigned) [Compound 226], the IC50 was below 1000 nM. Then `C[C@H]1C[C@@H](NC(=O)CC(C)(C)C)CN(c2ccc(C(F)F)c3ncccc23)C1` [Compound 205, N-[(3R,5S)-1-[8-(difluoromethyl)quinolin-5-yl]-5-methylpiperidin-3-yl]-3,3-dimethylbutanamide], with below 1000 nM; and `Cc1ncc(N2C[C@@H](C)C[C@@H](NC(=O)CC3CN(C(=O)OC(C)(C)C)C3)C2)c2cccnc12` [Compound 557, 3-{[(3R,5S)-5-Methyl-1-(8-methyl-[1,7]naphthyridin-5-yl)-piperidin-3-ylcarbamoyl]-methyl}-azetidine-1-carboxylic Acid tert-butyl ester], with 1000 to 10000 nM. Next, `N#Cc1ccc(N2CC(NC(=O)CC3(N)CCCCC3)CC(C(F)(F)F)C2)c2cccnc12` (single isomer, unassigned) [Compound 497]: below 1000 nM. Then `Cc1ccc(N2C[C@@H](C)C[C@@H](N)C2)c2cccnc12` [Compound 462, (3R,5S)-5-Methyl-1-(8-methyl-quinolin-5-yl)-piperidin-3-ylamine hydrochloride], with below 1000 nM; and `CN1CCC(N[C@H]2CN(c3ccc(C#N)c4nccnc34)CC(C)(C)C2)C1=O` (stereo partly drawn) [Compound 219, 8-[(5R)-3,3-dimethyl-5-[(1-methyl-2-oxopyrrolidin-3-yl)amino]piperidin-1-yl]quinoxaline-5-carbonitrile], with below 1000 nM. Turning to `C[C@H]1C[C@@H](NC(=O)CN2CCC(F)(F)CC2)CN(c2ccc(C(F)(F)F)c3nccnc23)C1` [Compound 354, 2-(4,4-difluoropiperidin-1-yl)-N-[(3R,5S)-5-methyl-1-[8-(trifluoromethyl)quinoxalin-5-yl]piperidin-3-yl]acetamide], the IC50 was 1000 to 10000 nM.

For the molecule `O=C(CN1CCOCC1)N[C@H]1C[C@@H](C2CC2)CN(c2ccc(C(F)(F)F)c3ncccc23)C1` (relative stereo) [Compound 336, cis-N-[5-cyclopropyl-1-[8-(trifluoromethyl)quinolin-5-yl]piperidin-3-yl]-2-(morpholin-4-yl)acetamide], the IC50 is above 10000 nM. Then `C[C@H]1C[C@@H](NC(=O)C2(N)COC2)CN(c2ccc(C#N)c3nccnc23)C1` [Compound 129, 3-amino-N-[(3R,5S)-1-(8-cyanoquinoxalin-5-yl)-5-methylpiperidin-3-yl]oxetane-3-carboxamide], with 1000 to 10000 nM; and `C[C@@H]1CN(c2ccnc3nccnc23)C[C@H](CN2CCNCC2)O1` [Compound 48, (2R,6S)-2-methyl-6-(piperazin-1-ylmethyl)-4-(pyrido[2,3-b]pyrazin-8-yl)morpholine], with 1000 to 10000 nM.

Turning to `CN1CCC(CNC(=O)C2CN(c3ccc(C#N)c4ncccc34)CC(F)(F)C2)CC1` (single isomer, unassigned) [Compound 545], the IC50 lay within 1000 to 10000 nM.

In the case of `C[C@H]1C[C@@H](NC(=O)CC(C)(C)C)CN(c2c(F)cc(C#N)c3nccnc23)C1` [Compound 343, N-[(3R,5S)-1-(8-cyano-6-fluoroquinoxalin-5-yl)-5-methylpiperidin-3-yl]-3,3-dimethylbutanamide], the IC50 lay within 1000 to 10000 nM. Then `N#Cc1ccc(N2C[C@H](NC(=O)NCC3CC(F)(F)C3)C[C@H](C(F)(F)F)C2)c2cccnc12` [Compound 580, 1-[(3R,5S)-1-(8-Cyano-quinolin-5-yl)-5-trifluoromethyl-piperidin-3-yl]-3-(3,3-difluoro-cyclobutylmethyl)-urea], with 1000 to 10000 nM.

For the molecule `CC1(C)CCN(CC(=O)N[C@@H]2C[C@H](C(F)(F)F)CN(c3ccc(C#N)c4ncccc34)C2)C1` [Compound 577, N-[(3R,5S)-1-(8-Cyano-quinolin-5-yl)-5-trifluoromethyl-piperidin-3-yl]-2-(3,3-dimethyl-pyrrolidin-1-yl)-acetamide], the IC50 was below 1000 nM. In the case of `C[C@H]1C[C@@H](NC(=O)CN(C)C)CN(c2ccc(C(N)=O)c3ncccc23)C1` [Compound 186, 5-[(3R,5S)-3-[2-(dimethylamino)acetamido]-5-methylpiperidin-1-yl]quinoline-8-carboxamide], the IC50 was above 10000 nM. As to `C[C@@H]1C[C@H](CN2CCC(N3CCOCC3)CC2)CN(c2ccc(C(F)(F)F)c3ncccc23)C1` (relative stereo) [Compound 535, cis-5-[3-Methyl-5-(4-morpholin-4-yl-piperidin-1-ylmethyl)-piperidin-1-yl]-8-trifluoromethyl-quinoline], the IC50 is below 1000 nM. Turning to `CC(C(=O)N[C@@H]1C[C@H](C)CN(c2ccc(C(F)F)c3nccnc23)C1)N1CC(F)(F)C1` (stereo partly drawn) [Compound 323, 2-(3,3-difluoroazetidin-1-yl)-N-[(3R,5S)-1-[8-(difluoromethyl)quinoxalin-5-yl]-5-methylpiperidin-3-yl]propanamide], the IC50 lay within 1000 to 10000 nM. Turning to `C[C@H]1C[C@@H](NC(=O)CC2CC2(F)F)CN(c2ccc(C(F)(F)F)c3ncccc23)C1` (stereo partly drawn) [Compound 286, 2-(2,2-difluorocyclopropyl)-N-[(3R,5S)-5-methyl-1-[8-(trifluoromethyl)quinolin-5-yl]piperidin-3-yl]acetamide], the IC50 was below 1000 nM. For `C[C@H]1C[C@@H](NC(=O)CC2CCN(C)C2)CN(c2ccc(C(F)F)c3nccnc23)C1` (stereo partly drawn) [Compound 319, N-[(3R,5S)-1-[8-(difluoromethyl)quinoxalin-5-yl]-5-methylpiperidin-3-yl]-2-(1-methylpyrrolidin-3-yl)acetamide], the IC50 was below 1000 nM. Next, `COc1ccc(N2C[C@@H](C)C[C@@H](NC(=O)CN(C)C)C2)c2cccnc12` [Compound 193, 2-(dimethylamino)-N-[(3R,5S)-1-(8-methoxyquinolin-5-yl)-5-methylpiperidin-3-yl]acetamide]: 1000 to 10000 nM; `N[C@H]1C[C@@H](C2CC2)CN(c2ccc(C(F)F)c3ncccc23)C1` (relative stereo) [Compound 332, cis-5-cyclopropyl-1-[8-(difluoromethyl)quinolin-5-yl]piperidin-3-amine]: below 1000 nM. Next, `C[C@H]1C[C@@H](NC(=O)[C@@H](C)N)CN(c2ccc(C#N)c3nccnc23)C1` [Compound 24, (R)-2-amino-N-((3R,5S)-1-(8-cyanoquinoxalin-5-yl)-5-methylpiperidin-3-yl)propanamide]: below 1000 nM.

On to `CCN(C)CC(=O)NCC1CCN(c2ccc(C#N)c3ncccc23)CC1` [Compound 410, N-[1-(8-Cyano-quinolin-5-yl)-piperidin-4-ylmethyl]-2-(ethyl-methyl-amino)-acetamide], for which the IC50 is below 1000 nM. Next, `CC(Cl)C(=O)NC1CN(c2ccc(C#N)c3nccnc23)CC(F)(F)C1` (stereo not drawn) [Compound 506, 2-Chloro-N-[1-(8-cyano-quinoxalin-5-yl)-5,5-difluoro-piperidin-3-yl]-propionamide]: 1000 to 10000 nM; `COCC(=O)N[C@@H]1C[C@H](C)CN(c2ccc(C#N)c3nccnc23)C1` [Compound 134, N-[(3R,5S)-1-(8-cyanoquinoxalin-5-yl)-5-methylpiperidin-3-yl]-2-methoxyacetamide]: 1000 to 10000 nM; `Fc1ccc2nccc(N3CCC(CNCCN4CCCCC4)CC3)c2c1` [Compound 378, [1-(6-Fluoro-quinolin-4-yl)-piperidin-4-ylmethyl]-(2-piperidin-1-yl-ethyl)-amine]: 1000 to 10000 nM. Next, `C[C@H]1C[C@@H](NC(=O)C(N)C(F)(F)F)CN(c2ccnc3nccnc23)C1` (single isomer, unassigned) [Compound 114, hydrochloride]: above 10000 nM; `CC(C)[C@H](O)C(=O)N[C@@H]1C[C@H](C)CN(c2ccc(C(N)=O)c3ncccc23)C1` [Compound 181, 5-[(3R,5S)-3-[(2S)-2-hydroxy-3-methylbutanamido]-5-methylpiperidin-1-yl]quinoline-8-carboxamide]: above 10000 nM. Then `N#Cc1ccc(N2C[C@@H](NC(=O)CC(F)(F)F)C[C@@H](C(F)(F)F)C2)c2cccnc12` (relative stereo) [Compound 428, cis-N-[1-(8-Cyano-quinolin-5-yl)-5-trifluoromethyl-piperidin-3-yl]-3,3,3-trifluoro-propionamide], with below 1000 nM.

Consider `C[C@H]1C[C@@H](NC(=O)CN)CN(c2ccnc3nccnc23)C1` [Compound 34, 2-amino-N-((3R,5S)-5-methyl-1-(pyrido[2,3-b]pyrazin-8-yl)piperidin-3-yl)acetamide], for which the IC50 is above 10000 nM.
